Test results published in BigSolDB 2.1.

Nc1cccc(C(=O)O)c1
solubility (mole fraction)
Conditions | 283.15 K | 288.15 K | 293.15 K | 298.15 K | 303.15 K | 308.15 K | 313.15 K | 318.15 K | 323.15 K
in 1,4-dioxane | – | 0.0319 | 0.035 | 0.0394 | 0.042 | 0.0469 | 0.0549 | 0.0627 | 0.0709
in acetone | 0.0289 | 0.0295 | 0.0304 | 0.0325 | 0.0375 | 0.0414 | 0.0455 | 0.052 | 0.0601
in acetonitrile | 0.00192 | 0.00225 | 0.00264 | 0.00313 | 0.00358 | 0.00452 | 0.00561 | 0.00664 | 0.00765
in ethanol | 0.00821 | 0.00955 | 0.0107 | 0.0117 | 0.0137 | 0.0154 | 0.0182 | 0.0218 | 0.0241
in isobutanol | 0.00506 | 0.00542 | 0.00599 | 0.00683 | 0.00796 | 0.00946 | 0.0113 | 0.0131 | 0.0158
in isopropanol | 0.00638 | 0.00712 | 0.00801 | 0.00943 | 0.0112 | 0.0135 | 0.0165 | 0.0204 | 0.023
in isopropyl acetate | 0.00459 | 0.00495 | 0.00526 | 0.00591 | 0.00674 | 0.00765 | 0.00917 | 0.0113 | 0.0135
in methanol | 0.012 | 0.0128 | 0.0139 | 0.0145 | 0.0166 | 0.0187 | 0.0219 | 0.0254 | 0.0296
in methyl acetate | 0.00731 | 0.00776 | 0.00841 | 0.00918 | 0.0108 | 0.0128 | 0.0149 | 0.0173 | 0.0203
in n-butanol | 0.00532 | 0.00595 | 0.00682 | 0.00768 | 0.00934 | 0.0117 | 0.0134 | 0.0156 | 0.0175
in n-propanol | 0.00568 | 0.00675 | 0.00804 | 0.00911 | 0.0107 | 0.0126 | 0.014 | 0.016 | 0.019
in water | 0.000506 | 0.000628 | 0.000725 | 0.000804 | 0.000976 | 0.00119 | 0.00135 | 0.00153 | 0.00184
